Source: patent US20230190950A1, “COMPOSITIONS AND METHODS FOR THE TREATMENT OF BACTERIAL INFECTIONS” (Cidara Therapeutics, Inc., priority 2017, published 2023)

Experiments:
Conditions in all cases: 40% blood, 90 min
PA 7874 COL^R = experiment: MBC in human blood, PA 7874; format: cell-based, Pseudomonas aeruginosa
Experimental: (§1) Overnight stationary-phase cultures were centrifuged at 3,500×g for 10 min at room temperature and resuspended in 1×PBS to an optical density at 600 nm (OD600) of 0.4 (1×10^8 colony forming units [CFU]/mL) in RPMI with L-glutamine and phenol red (Life Technologies). […] MBC was defined as the minimum conjugate concentration required for complete bacterial clearance. An untreated growth control (40% blood, 0 μg/mL conjugate) was included in all assays.
(§2) Overnight stationary-phase cultures were centrifuged at 3,500×g for 10 min at room temperature and resuspended in 1×PBS to an optical density at 600 nm (OD600) of 0.4 (1×10^8 colony forming units [CFU]/ml) in RPMI with L-glutamine and phenol red (Life Technologies). Bacteria were diluted 1:25 in RPMI (4×10^6 CFU/ml) and 10 ul added to wells of a non-binding 96-well plate (Corning 3641) containing 80 ul of 50% hirudin anti-coagulated blood (complement active) in RPMI. […] MBC was defined as the minimum conjugate concentration required for bacterial clearance (Table 8A and Table 8B). An untreated growth control (40% blood, 0 ug/ml conjugate) was included in all assays as a growth comparator.

EC 25922 COL^S = experiment: MBC in human blood, EC 25922; format: cell-based, Escherichia coli
Experimental: as §1, §2

AB 5075 COL^S = experiment: MBC in human blood, AB 5075; format: cell-based, Acinetobacter baumannii
Experimental: as §1, §2

PA 01 COL^S = experiment: MBC in human blood, PA 01; format: cell-based, Pseudomonas aeruginosa
Experimental: as §1, §2

hIgG1 Fc: "h-IgG1 Fc (SEQ ID NO: 4)", "MW=54,731 Da"; the unconjugated Fc used as starting protein
>128 µg/mL: MBC in human hirudin-anticoagulated blood, P. aeruginosa PA7874 (PA 7874 COL^R) | MBC in human hirudin-anticoagulated blood, E. coli ATCC 25922 (EC 25922 COL^S) | MBC in human hirudin-anticoagulated blood, A. baumannii AB5075 (AB 5075 COL^S) | MBC in human hirudin-anticoagulated blood, P. aeruginosa PAO1 (PA 01 COL^S)
